Test results: PubChem BioAssay AID1963438 (Molecular Pharmacology Branch, DTP, NCI, 2024)
“And” between values parts separate entries of the source, which are not always exact repeats. Equal entries are not always repeated.

System: NCI-H510 multicellular tumor spheroid growth, % test/control
Assay: Anticancer human tumor NCI-H510 cell line growth inhibition [Asc];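 further: spheroids exposed to agents for 7 days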;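 on viability, T/C: 100% = DMSO vehicle control wells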
Details: for viability, T/C: stronger effect = lower value
Summary of the method: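 Tumor cells were grown as complex spheroids with human endothelial cells (HUVEC) and human mesenchymal stem cells as stroma. Agents were tested alone and in combination, in half-log steps down from the clinical Cmax, or from 10 microM where Cmax was unknown.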

Compound: C=CC(=O)N1CCN(c2nc(=O)n(-c3c(C)ccnc3C(C)C)c3nc(-c4c(O)cccc4F)c(F)cc23)C(C)C1 (stereo not given) + CCN1C(C(=O)NC23CCC(C(=O)O)(CC2)CC3)C(c2cccc(Cl)c2F)C2(C(=O)Nc3cc(Cl)ccc32)C12CCCCC2
- IC50 (curve of first compound, second compound 0.03 µM): > 10000 nM
- IC50 (curve of first compound, second compound 0.0949 µM): > 10000 nM
- IC50 (curve of first compound, second compound 0.3 µM): > 10000 nM
- IC50 (curve of first compound, second compound 0.949 µM): > 10000 nM
- IC50 (curve of first compound, second compound 3 µM): > 10000 nM
- viability, T/C (second compound 0.03 µM, first compound 0.0316 µM): 70.7%
- viability, T/C (second compound 0.03 µM, first compound 0.1 µM): 108%
- viability, T/C (second compound 0.03 µM, first compound 0.316 µM): 81%
- viability, T/C (second compound 0.03 µM, first compound 1 µM): 100%
- viability, T/C (second compound 0.03 µM, first compound 3.16 µM): 90.2%
- viability, T/C (second compound 0.03 µM, first compound 10 µM): 98.3%
- viability, T/C (second compound 0.0949 µM, first compound 0.0316 µM): 117%
- viability, T/C (second compound 0.0949 µM, first compound 0.1 µM): 117%
- viability, T/C (second compound 0.0949 µM, first compound 0.316 µM): 98.5%
- viability, T/C (second compound 0.0949 µM, first compound 1 µM): 105%
- viability, T/C (second compound 0.0949 µM, first compound 3.16 µM): 96.8%
- viability, T/C (second compound 0.0949 µM, first compound 10 µM): 89.5%
- viability, T/C (second compound 0.3 µM, first compound 0.0316 µM): 90.3%
- viability, T/C (second compound 0.3 µM, first compound 0.1 µM): 103%
- viability, T/C (second compound 0.3 µM, first compound 0.316 µM): 91.5%
- viability, T/C (second compound 0.3 µM, first compound 1 µM): 101%
- viability, T/C (second compound 0.3 µM, first compound 3.16 µM): 98.4%
- viability, T/C (second compound 0.3 µM, first compound 10 µM): 95.6%
- viability, T/C (second compound 0.949 µM, first compound 0.0316 µM): 100%
- viability, T/C (second compound 0.949 µM, first compound 0.1 µM): 107%
- viability, T/C (second compound 0.949 µM, first compound 0.316 µM): 109%
- viability, T/C (second compound 0.949 µM, first compound 1 µM): 104%
- viability, T/C (second compound 0.949 µM, first compound 3.16 µM): 91.3%
- viability, T/C (second compound 0.949 µM, first compound 10 µM): 92.4%
- viability, T/C (second compound 3 µM, first compound 0.0316 µM): 116%
- viability, T/C (second compound 3 µM, first compound 0.1 µM): 97.8%
- viability, T/C (second compound 3 µM, first compound 0.316 µM): 85.3%
- viability, T/C (second compound 3 µM, first compound 1 µM): 101%
- viability, T/C (second compound 3 µM, first compound 3.16 µM): 103%
- viability, T/C (second compound 3 µM, first compound 10 µM): 79.2%

Compound: NC1CCC(NC2CC2c2ccccc2)CC1 (stereo not given) + Cc1c(S(C)(=O)=O)c(-c2cc(F)cc(N3CCN(c4ccc(NS(=O)(=O)c5ccc(NC(CCN6CCC(C(=O)OCCCP(=O)(O)O)CC6)CSc6ccccc6)c(S(=O)(=O)C(F)(F)F)c5)cc4)CC3)c2)c(-c2ccc(Cl)cc2)n1C(C)C
- IC50 (curve of first compound, second compound 0.1 µM): > 100 nM
- IC50 (curve of first compound, second compound 0.316 µM): > 100 nM
- IC50 (curve of first compound, second compound 1 µM): > 100 nM
- IC50 (curve of first compound, second compound 3.16 µM): > 100 nM
- IC50 (curve of first compound, second compound 10 µM): > 100 nM
- viability, T/C (second compound 0.1 µM, first compound 0.000316 µM): 88.8%
- viability, T/C (second compound 0.1 µM, first compound 0.001 µM): 85%
- viability, T/C (second compound 0.1 µM, first compound 0.00316 µM): 74.1%
- viability, T/C (second compound 0.1 µM, first compound 0.01 µM): 87.7%
- viability, T/C (second compound 0.1 µM, first compound 0.0316 µM): 67.5%
- viability, T/C (second compound 0.1 µM, first compound 0.1 µM): 90.4%
- viability, T/C (second compound 0.316 µM, first compound 0.000316 µM): 86.1%
- viability, T/C (second compound 0.316 µM, first compound 0.001 µM): 85.8%
- viability, T/C (second compound 0.316 µM, first compound 0.00316 µM): 76.9%
- viability, T/C (second compound 0.316 µM, first compound 0.01 µM): 66.5%
- viability, T/C (second compound 0.316 µM, first compound 0.0316 µM): 78.4%
- viability, T/C (second compound 0.316 µM, first compound 0.1 µM): 97.9%
- viability, T/C (second compound 1 µM, first compound 0.000316 µM): 116%
- viability, T/C (second compound 1 µM, first compound 0.001 µM): 77.8%
- viability, T/C (second compound 1 µM, first compound 0.00316 µM): 63.8%
- viability, T/C (second compound 1 µM, first compound 0.01 µM): 67.1%
- viability, T/C (second compound 1 µM, first compound 0.0316 µM): 64%
- viability, T/C (second compound 1 µM, first compound 0.1 µM): 59.6%
- viability, T/C (second compound 3.16 µM, first compound 0.000316 µM): 81%
- viability, T/C (second compound 3.16 µM, first compound 0.001 µM): 80.2%
- viability, T/C (second compound 3.16 µM, first compound 0.00316 µM): 74.8%
- viability, T/C (second compound 3.16 µM, first compound 0.01 µM): 67.1%
- viability, T/C (second compound 3.16 µM, first compound 0.0316 µM): 80.6%
- viability, T/C (second compound 3.16 µM, first compound 0.1 µM): 69.9%
- viability, T/C (second compound 10 µM, first compound 0.000316 µM): 66.8%
- viability, T/C (second compound 10 µM, first compound 0.001 µM): 63.1%
- viability, T/C (second compound 10 µM, first compound 0.00316 µM): 63.6%
- viability, T/C (second compound 10 µM, first compound 0.01 µM): 91%
- viability, T/C (second compound 10 µM, first compound 0.0316 µM): 102%
- viability, T/C (second compound 10 µM, first compound 0.1 µM): 36.1%

Compound: C=C(F)C(=O)N1CCN(c2nc(OCC3CCCN3C)nc3c2CCN(c2cccc4cccc(Cl)c24)C3)CC1CC#N (stereo not given)
- viability, T/C (compound 0.0316 µM): 109% and 85.9% and 108%
- viability, T/C (compound 0.1 µM): 87.2% and 84.2% and 92%
- viability, T/C (compound 0.316 µM): 72.8% and 84.8% and 97.8%
- viability, T/C (compound 1 µM): 67.5% and 68.6% and 102%
- viability, T/C (compound 3.16 µM): 1.87% and 8.13% and 16.5%
- viability, T/C (compound 10 µM): 0.2% and 0.21% and 0.25%
- IC50 (curve of compound): 1340 nM and 1420 nM and 1990 nM

Compound: O=C(c1cc(Cc2n[nH]c(=O)c3ccccc23)ccc1F)N1CCN(C(=O)C2CC2)CC1
- viability, T/C (compound 0.0316 µM): 93% and 95.9% and 99.4%
- viability, T/C (compound 0.1 µM): 101% and 80.6% and 86.1%
- viability, T/C (compound 0.316 µM): 69.5% and 59% and 83.9%
- viability, T/C (compound 1 µM): 60% and 90.4% and 76.8%
- viability, T/C (compound 3.16 µM): 29% and 43.1% and 88%
- IC50 (curve of compound): 1300 nM and 2570 nM and > 10000 nM

Compound: O=C(c1ccc(F)c(F)c1Nc1ccc(I)cc1F)N1CC(O)([C@@H]2CCCCN2)C1
- viability, T/C (compound 0.00316 µM): 80.5% and 85.3% and 98%
- viability, T/C (compound 0.01 µM): 119% and 91% and 90.4%
- viability, T/C (compound 0.0316 µM): 95.7% and 106% and 86.9%
- viability, T/C (compound 0.1 µM): 97.4% and 102% and 86.8%
- viability, T/C (compound 0.316 µM): 110% and 89% and 87.3%
- viability, T/C (compound 1 µM): 72.5% and 86% and 83.7%
- IC50 (curve of compound): > 1000 nM
